In patent US20250114345A1, “COMPOUNDS AND COMPOSITIONS AS CBP/P300 DEGRADERS AND USES THEREOF” (Oncopia Therapeutics, Inc. d/b/a/ SK Life Science Labs, priority 2023, published 2025):

Tests used:
CBP = biological target: T1, CBP (Homo sapiens, UniProt Q92793); assay: CBP degradation, HiBit technology in A549 CBP HiBit cells (24 h); format: cell-based; details: 24 hrs post treatment
T1 construct: host or cells: A549 CBP HiBit cells
How it was run: (§1)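 A549 HiBiT knock-in cells seeded overnight at 37 °C, 5% CO2 in F-12K with 10% heat-inactivated FBS, then given serial dilutions of compound from 10 mM DMSO stocks. Lytic HiBiT detection reagent added for 10 min at room temperature; luminescence read. Potency and Dmax reported.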

p300 = biological target: T2, p300 (Homo sapiens, UniProt Q09472); assay: P300 degradation, HiBit technology in A549 P300 HiBit cells (2 h); format: cell-based; details: 2 hrs post treatment; for Dmax: A549, A549 P300 HiBit cells; for DC50: A549 P300 HiBit cells
T2 construct: host or cells: A549 P300 HiBit cells
T2 sequence (Q09472 whole entry): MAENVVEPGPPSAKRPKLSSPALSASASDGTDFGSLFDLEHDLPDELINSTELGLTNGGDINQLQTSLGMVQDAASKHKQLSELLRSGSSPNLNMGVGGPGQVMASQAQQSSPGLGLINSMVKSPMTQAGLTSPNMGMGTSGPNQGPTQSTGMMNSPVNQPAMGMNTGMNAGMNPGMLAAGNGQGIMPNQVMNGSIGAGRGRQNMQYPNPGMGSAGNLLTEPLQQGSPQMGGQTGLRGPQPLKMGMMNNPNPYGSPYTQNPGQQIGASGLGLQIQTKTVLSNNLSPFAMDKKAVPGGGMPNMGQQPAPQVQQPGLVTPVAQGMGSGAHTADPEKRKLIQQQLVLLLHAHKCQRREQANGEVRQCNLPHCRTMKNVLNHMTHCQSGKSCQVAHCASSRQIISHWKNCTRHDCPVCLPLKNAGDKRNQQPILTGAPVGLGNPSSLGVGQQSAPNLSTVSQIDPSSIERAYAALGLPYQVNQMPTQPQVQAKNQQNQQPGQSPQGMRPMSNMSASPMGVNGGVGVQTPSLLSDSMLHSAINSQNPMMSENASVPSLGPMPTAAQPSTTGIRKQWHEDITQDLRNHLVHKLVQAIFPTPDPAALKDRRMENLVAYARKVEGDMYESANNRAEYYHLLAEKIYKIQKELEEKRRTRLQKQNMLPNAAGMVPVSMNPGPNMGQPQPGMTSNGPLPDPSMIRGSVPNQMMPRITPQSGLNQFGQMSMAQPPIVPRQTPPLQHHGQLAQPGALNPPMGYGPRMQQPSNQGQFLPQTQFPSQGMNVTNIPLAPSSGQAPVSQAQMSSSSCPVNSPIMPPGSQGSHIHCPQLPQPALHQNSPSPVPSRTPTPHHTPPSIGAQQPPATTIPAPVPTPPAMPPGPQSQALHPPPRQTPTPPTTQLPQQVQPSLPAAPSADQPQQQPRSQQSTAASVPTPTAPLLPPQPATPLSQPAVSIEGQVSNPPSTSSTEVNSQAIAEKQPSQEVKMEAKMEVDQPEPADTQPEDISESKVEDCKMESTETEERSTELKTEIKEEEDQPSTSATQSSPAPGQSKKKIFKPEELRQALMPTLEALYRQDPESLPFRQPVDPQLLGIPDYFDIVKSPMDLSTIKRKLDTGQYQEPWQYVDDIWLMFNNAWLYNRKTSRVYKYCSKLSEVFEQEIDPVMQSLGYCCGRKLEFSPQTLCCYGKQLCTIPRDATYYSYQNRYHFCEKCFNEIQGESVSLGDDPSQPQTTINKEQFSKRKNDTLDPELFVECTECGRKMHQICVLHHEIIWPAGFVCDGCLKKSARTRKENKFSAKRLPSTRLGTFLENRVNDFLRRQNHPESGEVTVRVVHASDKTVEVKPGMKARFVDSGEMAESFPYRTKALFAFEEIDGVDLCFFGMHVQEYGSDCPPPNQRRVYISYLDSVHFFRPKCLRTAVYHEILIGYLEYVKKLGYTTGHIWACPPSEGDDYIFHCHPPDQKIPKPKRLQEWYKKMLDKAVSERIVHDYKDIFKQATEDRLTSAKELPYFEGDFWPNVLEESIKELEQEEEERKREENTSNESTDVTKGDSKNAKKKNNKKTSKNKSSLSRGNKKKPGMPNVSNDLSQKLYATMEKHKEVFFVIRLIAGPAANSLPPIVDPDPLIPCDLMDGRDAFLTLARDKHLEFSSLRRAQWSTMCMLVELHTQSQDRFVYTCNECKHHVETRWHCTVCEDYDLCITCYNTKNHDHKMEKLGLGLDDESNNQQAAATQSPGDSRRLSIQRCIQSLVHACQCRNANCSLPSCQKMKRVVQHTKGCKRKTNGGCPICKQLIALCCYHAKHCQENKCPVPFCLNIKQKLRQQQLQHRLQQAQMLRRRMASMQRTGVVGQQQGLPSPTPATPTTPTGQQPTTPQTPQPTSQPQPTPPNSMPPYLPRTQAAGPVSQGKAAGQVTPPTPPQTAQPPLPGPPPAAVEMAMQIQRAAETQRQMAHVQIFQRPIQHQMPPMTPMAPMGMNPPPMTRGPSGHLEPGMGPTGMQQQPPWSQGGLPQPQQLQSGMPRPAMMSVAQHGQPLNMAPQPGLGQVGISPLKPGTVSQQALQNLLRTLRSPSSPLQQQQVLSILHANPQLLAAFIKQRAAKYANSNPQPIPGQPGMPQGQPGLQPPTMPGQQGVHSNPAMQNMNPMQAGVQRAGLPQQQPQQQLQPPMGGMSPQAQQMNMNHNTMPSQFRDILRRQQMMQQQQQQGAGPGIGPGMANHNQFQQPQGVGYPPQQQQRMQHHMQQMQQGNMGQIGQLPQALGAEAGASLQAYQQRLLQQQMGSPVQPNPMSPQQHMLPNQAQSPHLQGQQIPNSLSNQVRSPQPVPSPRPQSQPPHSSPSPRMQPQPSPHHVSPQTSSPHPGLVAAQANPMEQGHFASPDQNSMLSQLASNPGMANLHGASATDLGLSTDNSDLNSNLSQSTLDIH
How it was run: as §1

T1 sequence (Q92793 whole entry): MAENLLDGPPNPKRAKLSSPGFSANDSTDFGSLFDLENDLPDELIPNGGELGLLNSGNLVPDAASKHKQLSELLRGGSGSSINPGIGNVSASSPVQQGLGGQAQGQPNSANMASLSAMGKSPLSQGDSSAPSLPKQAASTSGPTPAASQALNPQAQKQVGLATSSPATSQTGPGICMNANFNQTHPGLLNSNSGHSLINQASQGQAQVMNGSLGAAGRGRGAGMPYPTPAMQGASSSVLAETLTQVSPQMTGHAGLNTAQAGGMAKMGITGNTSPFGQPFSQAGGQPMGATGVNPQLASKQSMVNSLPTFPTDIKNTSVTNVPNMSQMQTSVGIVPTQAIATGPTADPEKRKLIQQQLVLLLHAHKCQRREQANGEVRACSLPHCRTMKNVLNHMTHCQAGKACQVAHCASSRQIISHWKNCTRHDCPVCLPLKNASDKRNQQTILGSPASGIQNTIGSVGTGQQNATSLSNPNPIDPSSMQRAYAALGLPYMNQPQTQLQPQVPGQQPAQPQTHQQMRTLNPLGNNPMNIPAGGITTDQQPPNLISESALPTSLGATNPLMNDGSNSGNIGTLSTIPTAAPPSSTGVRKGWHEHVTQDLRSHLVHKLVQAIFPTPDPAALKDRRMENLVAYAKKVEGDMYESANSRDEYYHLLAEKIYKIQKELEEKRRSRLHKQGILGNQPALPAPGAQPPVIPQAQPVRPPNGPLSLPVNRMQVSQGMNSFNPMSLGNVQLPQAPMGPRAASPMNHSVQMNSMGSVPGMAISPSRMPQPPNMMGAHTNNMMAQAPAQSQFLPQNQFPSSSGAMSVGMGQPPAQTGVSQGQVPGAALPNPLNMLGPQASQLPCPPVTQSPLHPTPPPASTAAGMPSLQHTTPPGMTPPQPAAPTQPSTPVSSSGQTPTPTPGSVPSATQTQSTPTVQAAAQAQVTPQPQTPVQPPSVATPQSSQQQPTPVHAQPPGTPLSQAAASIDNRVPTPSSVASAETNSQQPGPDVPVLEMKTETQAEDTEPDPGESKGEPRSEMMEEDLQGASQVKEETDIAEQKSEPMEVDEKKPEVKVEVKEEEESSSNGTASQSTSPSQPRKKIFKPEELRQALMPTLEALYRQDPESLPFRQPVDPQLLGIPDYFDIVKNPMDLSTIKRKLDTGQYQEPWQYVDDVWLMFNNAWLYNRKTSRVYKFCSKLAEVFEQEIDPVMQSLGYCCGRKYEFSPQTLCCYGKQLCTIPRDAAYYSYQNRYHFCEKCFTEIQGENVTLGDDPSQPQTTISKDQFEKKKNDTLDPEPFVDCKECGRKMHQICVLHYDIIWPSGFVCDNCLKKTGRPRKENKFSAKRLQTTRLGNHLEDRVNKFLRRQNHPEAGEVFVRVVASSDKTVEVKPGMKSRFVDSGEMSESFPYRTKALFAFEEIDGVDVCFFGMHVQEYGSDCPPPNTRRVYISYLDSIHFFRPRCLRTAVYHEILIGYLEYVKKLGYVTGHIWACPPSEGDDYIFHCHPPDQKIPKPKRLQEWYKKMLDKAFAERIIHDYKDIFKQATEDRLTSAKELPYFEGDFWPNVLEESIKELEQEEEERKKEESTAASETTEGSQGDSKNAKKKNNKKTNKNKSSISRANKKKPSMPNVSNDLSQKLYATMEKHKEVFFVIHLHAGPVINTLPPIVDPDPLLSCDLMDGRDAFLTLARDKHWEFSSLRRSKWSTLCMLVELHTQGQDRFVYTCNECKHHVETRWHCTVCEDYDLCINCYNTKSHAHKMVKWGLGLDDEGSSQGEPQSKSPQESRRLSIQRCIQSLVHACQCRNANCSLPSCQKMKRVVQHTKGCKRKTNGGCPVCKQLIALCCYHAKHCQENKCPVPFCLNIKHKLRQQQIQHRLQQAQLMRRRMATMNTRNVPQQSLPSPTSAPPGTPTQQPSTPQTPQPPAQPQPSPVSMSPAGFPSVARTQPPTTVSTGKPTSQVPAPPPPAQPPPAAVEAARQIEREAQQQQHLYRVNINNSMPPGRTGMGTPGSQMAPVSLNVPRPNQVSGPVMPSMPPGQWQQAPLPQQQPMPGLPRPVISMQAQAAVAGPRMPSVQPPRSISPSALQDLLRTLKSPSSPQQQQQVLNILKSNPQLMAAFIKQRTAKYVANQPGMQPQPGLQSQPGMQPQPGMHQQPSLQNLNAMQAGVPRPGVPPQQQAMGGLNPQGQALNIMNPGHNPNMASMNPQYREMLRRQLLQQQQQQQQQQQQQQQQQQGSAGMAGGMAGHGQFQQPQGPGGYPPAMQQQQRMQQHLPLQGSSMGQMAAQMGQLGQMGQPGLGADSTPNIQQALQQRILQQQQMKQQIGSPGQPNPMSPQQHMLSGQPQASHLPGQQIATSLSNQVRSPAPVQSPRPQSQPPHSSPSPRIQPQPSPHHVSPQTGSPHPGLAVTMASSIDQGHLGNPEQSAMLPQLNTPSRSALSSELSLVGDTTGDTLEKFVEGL

| DC50 (CBP) [nM] | Dmax (CBP) [%] | Dmax (p300) [%] | DC50 (p300) [nM] | Structure (SMILES) |
| --- | --- | --- | --- | --- |
| > 1000 | < 20 | > 80 | 1 to 9.9 | Cn1c(=O)n(C)c2cc(-c3cccc4cc(-c5ccc(C(=O)NCC#Cc6ccc7occ(C8CCC(=O)NC8=O)c7c6)nc5)ncc34)ccc21 (stereo not shown) [Example A119, 5-(8-(1,3-dimethyl-2-oxo-2,3-dihydro-1H-benzo[d]imidazol-5-yl)isoquinolin-3-yl)-N-(3-(3-(2,6-dioxo-piperidin-3-yl)benzofuran-5-yl)prop-2-yn-1-yl)picolinamide] |
| > 1000 | < 20 | 60 to 79 | 1 to 9.9 | Cc1cc2c(N3CCCc4nc(-c5ccc(C(=O)NCC#Cc6ccc7occ(C8CCC(=O)NC8=O)c7c6)nc5)ncc43)nc(N3CC(F)C3)cc2n(C)c1=O (stereo not shown) [Example B68, N-(3-(3-(2,6-dioxopiperidin-3-yl)benzofuran-5-yl)prop-2-yn-1-yl)-5-(5-(7-(3-fluoroazetidin-1-yl)-1,3-dimethyl-2-oxo-1,2-dihydro-1,6-naphthyridin-5-yl)-5,6,7,8-tetrahydropyrido [3,2-d]pyrimidin-2-yl)picolinamide] |
| 100 to 999 | < 20 | > 80 | 1 to 9.9 | Cc1cc2c(N3CCCc4nc(-c5ccc(C(=O)NCC#Cc6ccc7occ(C8CCC(=O)NC8=O)c7c6)nc5)ncc43)cc(C3CCOCC3)nc2n(C)c1=O (stereo not shown) [Example B76, 5-(5-(6,8-dimethyl-7-oxo-2-(tetrahydro-2H-pyran-4-yl)-7,8-dihydro-1,8-naphthyridin-4-yl)-5,6,7,8-tetrahydropyrido[3,2-d]pyrimidin-2-yl)-N-(3-(3-(2,6-dioxopiperidin-3-yl)benzofuran-5-yl)prop-2-yn-1-yl)picolinamide] |
| > 1000 | < 20 | > 80 | 1 to 9.9 | CC(C)c1cc(-c2cccc3cc(-c4ccc(C(=O)NCC#Cc5cc6c(C7CCC(=O)NC7=O)cccc6o5)nc4)ncc23)cc2c1n(C)c(=O)n2C (stereo not shown) [Example A197, N-(3-(4-(2,6-dioxo-piperidin-3-yl)benzofuran-2-yl)prop-2-yn-1-yl)-5-(8-(7-isopropyl-1,3-dimethyl-2-oxo-2,3-dihydro-1H-benzo [d]imidazol-5-yl)isoquinolin-3-yl)picolinamide] |
| > 1000 | < 20 | > 80 | 1 to 9.9 | Cc1cc2c(N3CCCc4nc(-c5ccc(C(=O)NCC#Cc6cc7c(C8CCC(=O)NC8=O)cccc7o6)nc5)ncc43)cc(C3CCC3)cc2n(C)c1=O (stereo not shown) [Example B161, 5-(5-(7-cyclobutyl-1,3-dimethyl-2-oxo-1,2-dihydroquinolin-5-yl)-5,6,7,8-tetrahydropyrido [3,2-d]pyrimidin-2-yl)-N-(3-(4-(2,6-dioxo-piperidin-3-yl)benzofuran-2-yl)prop-2-yn-1-yl)picolinamide] |
| > 1000 | < 20 | 40 to 59 | 1 to 9.9 | Cc1cc2c(N3CCCc4nc(-c5ccc(C(=O)NCC#Cc6ccc7occ(C8CCC(=O)NC8=O)c7c6)nc5)ncc43)nc(N3CCOCC3)nc2n(C)c1=O (stereo not shown) [Example B51, 5-(5-(6,8-dimethyl-2-morpholino-7-oxo-7,8-dihydropyrido[2,3-d]pyrimidin-4-yl)-5,6,7,8-tetrahydropyrido[3,2-d]pyrimidin-2-yl)-N-(3-(3-(2,6-dioxopiperidin-3-yl)benzofuran-5-yl)prop-2-yn-1-yl)picolinamide] |
| > 1000 | < 20 | > 80 | 1 to 9.9 | COc1cc(-c2ncc3c(n2)CCCN3c2cc(C3CCOCC3)cc3c2cc(C)c(=O)n3C)cnc1C(=O)NCC#Cc1ccc2occ(C3CCC(=O)NC3=O)c2c1 (stereo not shown) [Example B24, 5-(5-(1,3-dimethyl-2-oxo-7-(tetrahydro-2H-pyran-4-yl)-1,2-dihydroquinolin-5-yl)-5,6,7,8-tetrahydropyrido[3,2-d]pyrimidin-2-yl)-N-(3-(3-(2,6-dioxopiperidin-3-yl)benzofuran-5-yl)prop-2-yn-1-yl)-3-methoxypicolinamide] |
| > 1000 | < 20 | > 80 | 1 to 9.9 | CC(C)c1cc(-c2cccc3cc(-c4ccc(C(=O)NCC#Cc5cc6c(C7CCC(=O)NC7=O)coc6cc5F)nc4)ncc23)cc2c1n(C)c(=O)n2C (stereo not shown) [Example A234, N-(3-(3-(2,6-dioxo-piperidin-3-yl)-6-fluorobenzofuran-5-yl)prop-2-yn-1-yl)-5-(8-(7-isopropyl-1,3-dimethyl-2-oxo-2,3-dihydro-1H-benzo [d]imidazol-5-yl)isoquinolin-3-yl)picolinamide] |
| > 1000 | < 20 | > 80 | 1 to 9.9 | Cc1cc(-c2ncc3c(n2)CCCN3c2ccc3c(c2)n(C)c(=O)n3C)cnc1C(=O)NCC#Cc1ccc2occ(C3CCC(=O)NC3=O)c2c1 (stereo not shown) [Example A79, 5-(5-(1,3-dimethyl-2-oxo-2,3-dihydro-1H-benzo[d]imidazol-5-yl)-5,6,7,8-tetrahydropyrido[3,2-d]pyrimidin-2-yl)-N-(3-(3-(2,6-dioxo-piperidin-3-yl)benzofuran-5-yl)prop-2-yn-1-yl)-3-methylpicolinamide] |
| 1 to 9.9 | 60 to 79 | > 80 | 1 to 9.9 | CC(C)c1cc(-c2cccc3cc(-c4ccc(C(=O)NCC#Cc5ccc6[nH]nc(C7CCC(=O)NC7=O)c6c5)nc4)ncc23)cc2c1n(C)c(=O)n2C (stereo not shown) [Example A204, N-(3-(3-(2,6-dioxo-piperidin-3-yl)-1H-indazol-5-yl)prop-2-yn-1-yl)-5-(8-(7-isopropyl-1,3-dimethyl-2-oxo-2,3-dihydro-1H-benzo [d]imidazol-5-yl)isoquinolin-3-yl)picolinamide] |
| > 1000 | < 20 | > 80 | < 1 | Cn1c(=O)n(C)c2cc(-c3cccc4cc(-c5ccc(C(=O)NCC#Cc6ccc7nnn(C8CCC(=O)NC8=O)c7c6)nc5)ncc34)ccc21 (stereo not shown) [Example A163, 5-(8-(1,3-dimethyl-2-oxo-2,3-dihydro-1H-benzo[d]imidazol-5-yl)isoquinolin-3-yl)-N-(3-(1-(2,6-dioxo-piperidin-3-yl)-1H-benzo[d][1,2,3]triazol-6-yl)prop-2-yn-1-yl)picolinamide] |
| > 1000 | < 20 | 60 to 79 | 1 to 9.9 | Cc1cc2c(N3CCCc4nc(-c5ccc(C(=O)NCC#Cc6ccc7occ(C89CC(C8)C(=O)NC9=O)c7c6)nc5)ncc43)cc(C3CCOCC3)cc2n(C)c1=O [Example B107, 5-(5-(1,3-dimethyl-2-oxo-7-(tetrahydro-2H-pyran-4-yl)-1,2-dihydroquinolin-5-yl)-5,6,7,8-tetrahydropyrido[3,2-d]pyrimidin-2-yl)-N-(3-(3-(2,4-dioxo-3-azabicyclo[3.1.1]heptan-1-yl)benzofuran-5-yl)prop-2-yn-1-yl) picolinamide] |
| 100 to 999 | < 20 | > 80 | < 1 | Cc1cc2c(N3CCCc4nc(-c5ccc(C(=O)NCC#Cc6cc7c(C8CCC(=O)NC8=O)cccc7o6)nc5)ncc43)cccc2n(C)c1=O (stereo not shown) [Example B67, 5-(5-(1,3-dimethyl-2-oxo-1,2-dihydroquinolin-5-yl)-5,6,7,8-tetrahydropyrido[3,2-d]pyrimidin-2-yl)-N-(3-(4-(2,6-dioxopiperidin-3-yl)benzofuran-2-yl)prop-2-yn-1-yl)picolinamide] |
